For this series the following is noted: for viscosity: 101.33 kPa, Cone and plate viscometry; for viscosity / surface tension liquid-gas: Liquid; for surface tension liquid-gas: 293 K; for Normal melting temperature: Crystal; for Normal melting temperature / Glass transition temperature: DTA.

Numbers after ± are expanded uncertainties.

Broadly, the viscosity is the resistance of a fluid to flow. As usually defined, the surface tension liquid-gas is the work needed to enlarge the surface of a liquid by unit area. Take `CCCC[N+]1(C)CCCC1.FC(F)(F)C(F)(F)[P-](F)(F)(F)(C(F)(F)C(F)(F)F)C(F)(F)C(F)(F)F`: the surface tension liquid-gas was found to be 38 ± 5 mN/m, the Normal melting temperature is 4 ± 2 °C and the Glass transition temperature is -116 ± 3 °C. The viscosity (290 K) is 355 ± 17 mPa·s. The viscosity (295 K) is reported as 272 ± 14 mPa·s. Where the note is “300 K”, the viscosity is on record as 209 ± 12 mPa·s. The viscosity (305 K) stood at 163 ± 11 mPa·s. Moreover, for the setting “310 K”, the viscosity is 129 ± 10 mPa·s. Further, the viscosity (315 K) amounted to 105 ± 10 mPa·s. In addition, the viscosity (320 K) amounted to 87 ± 10 mPa·s. The viscosity (325 K) was 72 ± 10 mPa·s. For the setting “330 K”, the viscosity amounted to 62 ± 10 mPa·s. Moreover, under “335 K”, the viscosity is 53 ± 10 mPa·s. Besides, the viscosity (340 K) turned out to be 47 ± 10 mPa·s. For the same compound, the viscosity (345 K) is given as 41 ± 10 mPa·s. Moreover, for the setting “350 K”, the viscosity stood at 37 ± 10 mPa·s. Further, the viscosity (355 K) amounted to 34 ± 10 mPa·s. Under “360 K”, the viscosity was found to be 30 ± 10 mPa·s. Moreover, the viscosity (365 K) is on record as 28 ± 10 mPa·s.

On to `CCC[n+]1ccn(C)c1C.O=S(=O)([N-]S(=O)(=O)C(F)(F)F)C(F)(F)F`, for which the surface tension liquid-gas stood at 41 ± 6 mN/m, the Normal melting temperature was 8 ± 2 °C and the Glass transition temperature is -109 ± 20 °C. Further, where the note is “290 K”, the viscosity was 131 ± 10 mPa·s. In addition, where the note is “295 K”, the viscosity is recorded as 106 ± 10 mPa·s. Further, where the note is “300 K”, the viscosity came out at 85 ± 10 mPa·s. Besides, under “305 K”, the viscosity is on record as 69 ± 10 mPa·s. Further, the viscosity (310 K) worked out at 58 ± 10 mPa·s. Also, the viscosity (315 K) turned out to be 49 ± 10 mPa·s. The viscosity (320 K) came out at 42 ± 10 mPa·s. The viscosity (325 K) was 37 ± 10 mPa·s. Further, the viscosity (330 K) turned out to be 33 ± 10 mPa·s. The viscosity (335 K) is recorded as 29 ± 10 mPa·s. Also, the viscosity (340 K) is on record as 27 ± 10 mPa·s. The viscosity (345 K) came out at 24 ± 10 mPa·s. Also, under “350 K”, the viscosity is 23 ± 10 mPa·s. Further, the viscosity (355 K) is on record as 21 ± 10 mPa·s. Moreover, the viscosity (360 K) came to 20 mPa·s. Further, for the setting “365 K”, the viscosity worked out at 19 mPa·s.

On to `CCn1cc[n+](C)c1.N#CN=C=[N-]` [1-ethyl-3-methylimidazolium dicyanamide], for which the surface tension liquid-gas is recorded as 64 ± 9 mN/m, the Normal melting temperature was -18 ± 2 °C and the Glass transition temperature was -96 ± 3 °C. Further, the viscosity (290 K) is given as 24 mPa·s. Moreover, the viscosity (295 K) is on record as 21 mPa·s. Besides, the viscosity (300 K) is listed as 19 mPa·s. Further, the viscosity (305 K) worked out at 18 mPa·s. The viscosity (310 K) was determined as 17 mPa·s. Besides, the viscosity (315 K) turned out to be 16 mPa·s. The viscosity (320 K) is 15 mPa·s. The viscosity (325 K) is given as 15 mPa·s. In addition, the viscosity (330 K) is 14 mPa·s. Further, the viscosity (335 K) was 14 mPa·s. Also, for the setting “340 K”, the viscosity is 13 mPa·s. Further, the viscosity (345 K) is 13 mPa·s. The viscosity (350 K) came out at 12 mPa·s. Also, the viscosity (355 K) is 12 mPa·s. Also, under “360 K”, the viscosity amounted to 12 mPa·s. Further, the viscosity (365 K) stood at 12 mPa·s.

In the case of `CCn1cc[n+](C)c1.F[B-](F)(F)F` [1-ethyl-3-methylimidazolium tetrafluoroborate], the surface tension liquid-gas was 53 ± 7 mN/m. In addition, the viscosity (290 K) came to 46 ± 10 mPa·s. Further, under “295 K”, the viscosity was 41 ± 10 mPa·s. Moreover, the viscosity (300 K) was 32 ± 10 mPa·s. In addition, the viscosity (305 K) was 31 ± 10 mPa·s. For the setting “310 K”, the viscosity is 27 ± 10 mPa·s. In addition, for the setting “315 K”, the viscosity is listed as 24 ± 10 mPa·s. The viscosity (320 K) came out at 22 ± 10 mPa·s. The viscosity (325 K) is given as 21 ± 10 mPa·s. Further, the viscosity (330 K) worked out at 19 mPa·s. The viscosity (335 K) was 18 mPa·s. For the same compound, the viscosity (340 K) was 18 mPa·s. For the same compound, the viscosity (345 K) is on record as 16 mPa·s. For the same compound, the viscosity (350 K) is listed as 15 mPa·s. Moreover, the viscosity (355 K) was 15 mPa·s. Moreover, the viscosity (360 K) was 15 mPa·s. Besides, for the setting “365 K”, the viscosity is on record as 13 mPa·s.
